The values that follow come from US20250000989A1, “PYRROLO BENZODIAZEPINE DERIVATIVE, AND CONJUGATE, PREPARATION METHOD AND USE THEREOF” (priority 2021, published 2025).

Common to all, as to test: Inhibition of in vitro proliferation of tumor cells by PBD compounds (CTG)
Holding throughout (type): cell-based

The subject of assay [1] is MKN45 (human gastric cancer cells). Conditions: MKN-45, 144 h, 6 days of culture. As for the experimental part:
(§1) The objective of this assay is to measure the activity of the compounds of the present disclosure in inhibiting the proliferation of different tumor cell lines: SK-BR-3 tumor cells (human breast cancer cells, ATCC, Cat. No. HTB-30), NCI-H23 (human non-small cell lung cancer cells, Nanjing Cobioer, Cat. No. CBP60132), and MKN45 (human gastric cancer cells, Nanjing Cobioer, Cat. No. CBP60488). The cells were treated in vitro with different concentrations of the compounds. After 6 days of culture, the proliferation of the cells was measured using CTG (CellTiter-Glo® Luminescent Cell Viability Assay, Promega, Cat. No. G7573) reagent, and the in vitro activity of the compounds was evaluated based on their IC50 values.
(§2) • 1. Cell culture: SK-BR-3, NCI-H23, and MKN45 cells were separately cultured in McCoy's 5A medium (ThermoFisher, Cat. No. 16600108) and RPMI 1640 medium (ThermoFisher, Cat. No. 11875119) containing 10% FBS (Gibco, 10099-141). • 2. Cell plating: After being digested with trypsin (0.25% Trypsin-EDTA (1×), Life Technologies, Cat. No. 25200-072), the SK-BR-3, NCI-H23, and MKN45 were resuspended in their respective media and counted. The density was adjusted to 1.48×10^4 cells/mL, and the cells were plated onto 96-well plates (corning, Cat. No. 3903) at 135 μL/well, i.e., 2000 cells/well, and cultured at 37° C. for 24 h. • 3. Drug formulation: PBD drugs were formulated in round-bottom 96-well plates. Plate 1: In the first column, the concentration was 0.05 mM; in the second column through the fourth column, a 3-fold serial dilution was performed in DMSO; in the fifth column through the sixth column, a 5-fold serial dilution was performed in DMSO; in the seventh column through the ninth column, a 10-fold serial dilution was performed in DMSO; and the tenth column contained DMSO. Plate 2: Corresponding media were added to the first column through the tenth column at 196 μL/well; 4 μL of solution was transferred from each well of the first column through the tenth column of plate 1 to plate 2 and well mixed with the medium; 15 μL of the mixture was added to the cells plated the day before, and the cells were cultured at 37° C. for another 6 days. • 4. CTG assay: The cell culture plates were taken out and equilibrated to room temperature. CTG was added at 75 μL/well, and the plates were incubated at room temperature in the dark for 10 min. Then luminescence values were measured on a microplate reader (BMG labtech, PHERAstar FS).

Assay [2] has as its system NCI-H23 (human non-small cell lung cancer cells). To be noted: 144 h, 6 days of culture. The protocol: as §1, §2
Assay [3] has as its system SK-BR-3 tumor cells (human breast cancer cells). To be noted: 144 h, 6 days of culture. As for the experimental part: as §1, §2

One may read the IC50 as the point on the concentration scale where inhibition reaches its midpoint. A lower IC50 goes with inhibition by little substance. As to `COc1ccc(C2=CN3C(=O)c4cc(OC)c(OCc5cncc(COc6cc7c(cc6OC)C(=O)N6CC8(CC8)C[C@H]6C=N7)c5)cc4NC[C@@H]3C2)cc1` [2-29], the results for the IC50 in assay [1], in assay [2] and in assay [3] were 0.02 nM, 0.02 nM and 0.08 nM, respectively.
For the compound `COc1ccc(C2=CN3C(=O)c4cc(OC)c(OCCOCCOc5cc6c(cc5OC)C(=O)N5CC7(CC7)C[C@H]5C=N6)cc4NC[C@@H]3C2)cc1` [2-26, (S)-7-Methoxy-8-(2-(2-(((S)-7-methoxy-2-(4-methoxyphenyl)-5-oxo-5,10,11,11a-tetrahydro-1H-benzo[e]pyrrolo[1,2-a][1,4]diazepin-8-yl)oxy)ethoxy)ethoxy)-1,11a-dihydro-3H,5H-spiro[benzo[e]pyrrolo[1,2-a][1,4]diazepine-2,1′-cyclopropan]-5-one], the values for the IC50 in assay [1], in assay [2] and in assay [3] were 2.42 nM, 2.98 nM and 2.12 nM, respectively.
The corresponding values for `COc1cc2c(cc1OCCCCCOc1cc3c(cc1OC)C(=O)N1C=C(c4ccc(-n5nccn5)cc4)C[C@H]1CN3)N=C[C@@H]1CC3(CC3)CN1C2=O` [2-7, (S)-8-((5-(((S)-2-(4-(2H-1,2,3-Triazol-2-yl)phenyl)-7-methoxy-5-oxo-5,10,11,11a-tetrahydro-1H-benzo[e]pyrrolo[1,2-a][1,4]diazepin-8-yl)oxy)pentyl)oxy)-7-methoxy-1,11a-dihydro-3H,5H-spiro[benzo[e]pyrrolo[1,2-a][1,4]diazepine-2,1′-cyclopropan]-5-one] are 0.07 nM, 0.04 nM and 0.08 nM.
On the same counts, the results for `COc1cc2c(cc1OCCCCCOc1cc3c(cc1OC)C(=O)N1C=C(c4ccc(N5CCN(C(=O)CO)CC5)cc4)C[C@H]1CN3)N=C[C@@H]1CC3(CC3)CN1C2=O` [2-32, (S)-8-((5-(((S)-2-(4-(4-(2-Hydroxyacetyl)piperazin-1-yl)phenyl)-7-methoxy-5-oxo-5,10,11,11a-tetrahydro-1H-benzo[e]pyrrolo[1,2-a][1,4]diazepin-8-yl)oxy)pentyl)oxy)-7-methoxy-1,11a-dihydro-3H,5H-spiro[benzo[e]pyrrolo[1,2-a][1,4]diazepine-2,1′-cyclopropan]-5-one] are 0.13 nM, 0.09 nM and 0.78 nM.
For the compound `COc1cc2c(cc1OCCCCCOc1cc3c(cc1OC1CC1)C(=O)N1CC4(CC4)C[C@H]1C=N3)NC[C@@H]1CC(c3ccc(C4CCOCC4)cc3)=CN1C2=O` [2-39, (S)-7-Cyclopropoxy-8-((5-(((S)-7-methoxy-5-oxo-2-(4-(tetrahydro-2H-pyran-4-yl)phenyl)-5,10,11,11a-tetrahydro-1H-benzo[e]pyrrolo[1,2-a][1,4]diazepin-8-yl)oxy)pentyl)oxy)-1,11a-dihydro-3H,5H-spiro[benzo[e]pyrrolo[1,2-a][1,4]diazepine-2,1′-cyclopropan]-5-one], the results for the concentration for half-maximal inhibition (IC50) in assay [1], in assay [2] and in assay [3] were 0.84 nM, 0.39 nM and 0.58 nM, respectively.
As for `COc1cc2c(cc1OCCCCCOc1cc3c(cc1OC)C(=O)N1C=C(c4ccc(SCC5CC5)cc4)C[C@H]1CN3)N=C[C@@H]1CC3(CC3)CN1C2=O` [2-34, (S)-8-((5-(((S)-2-(4-((Cyclopropylmethyl)thio)phenyl)-7-methoxy-5-oxo-5,10,11,11a-tetrahydro-1H-benzo[e]pyrrolo[1,2-a][1,4]diazepin-8-yl)oxy)pentyl)oxy)-7-methoxy-1,11a-dihydro-3H,5H-spiro[benzo[e]pyrrolo[1,2-a][1,4]diazepine-2,1′-cyclopropan]-5-one], the IC50 in assay [1] is 1.37 nM; in assay [2], 0.62 nM; in assay [3], 1.42 nM.
The corresponding values for `COc1ccc(C2=CN3C(=O)c4cc(OC)c(OCCCCCOc5cc6c(cc5OC)C(=O)N5CC7(CC7)C[C@H]5C=N6)cc4NC(=O)[C@@H]3C2)cc1` [2-22, (S)-7-Methoxy-8-((5-(((S)-7-methoxy-5-oxo-5,11a-dihydro-1H,3H-spiro[benzo[e]pyrrolo[1,2-a][1,4]diazepine-2,1′-cyclopropan]-8-yl)oxy)pentyl)oxy)-2-(4-methoxyphenyl)-1,11a-dihydro-5H-benzo[e]pyrrolo[1,2-a][1,4]diazepine-5,11(10H)-dione] are 0.17 nM, 0.08 nM and 0.26 nM.
On the same counts, the results for `COc1cc2c(cc1OCCCCCOc1cc3c(cc1OC)C(=O)N1C=C(c4ccc(SC5CCC5)cc4)C[C@H]1CN3)N=C[C@@H]1CC3(CC3)CN1C2=O` [2-35, (S)-8-((5-(((S)-2-(4-(Cyclobutylthio)phenyl)-7-methoxy-5-oxo-5,10,11,11a-tetrahydro-1H-benzo[e]pyrrolo[1,2-a][1,4]diazepin-8-yl)oxy)pentyl)oxy)-7-methoxy-1,11a-dihydro-3H,5H-spiro[benzo[e]pyrrolo[1,2-a][1,4]diazepine-2,1′-cyclopropan]-5-one] are 2.73 nM, 0.84 nM and 1.7 nM.
The corresponding values for `COc1cc2c(cc1OCCCCCOc1cc3c(cc1OC)C(=O)N1C=C(c4ccc(C5CCN(C(=O)CO)CC5)cc4)C[C@H]1CN3)N=C[C@@H]1CC3(CC3)CN1C2=O` [2-10, (S)-8-((5-(((S)-2-(4-(1-(2-Hydroxyacetyl)piperidin-4-yl)phenyl)-7-methoxy-5-oxo-5,10,11,11a-tetrahydro-1H-benzo[e]pyrrolo[1,2-a][1,4]diazepin-8-yl)oxy)pentyl)oxy)-7-methoxy-1,11a-dihydro-3H,5H-spiro[benzo[e]pyrrolo[1,2-a][1,4]diazepine-2,1′-cyclopropan]-5-one] are 0.61 nM, 0.2 nM and 0.63 nM.
For the compound `COc1ccc(C2=CN3C(=O)c4cc(OC)c(OCC5(CCCOc6cc7c(cc6OC)C(=O)N6CC8(CC8)C[C@H]6C=N7)CC5)cc4NC[C@@H]3C2)cc1` [2-13, (S)-7-Methoxy-8-(3-(1-((((S)-7-methoxy-2-(4-methoxyphenyl)-5-oxo-5,10,11,11a-tetrahydro-1H-benzo[e]pyrrolo[1,2-a][1,4]diazepin-8-yl)oxy)methyl)cyclopropyl)propoxy)-1,11a-dihydro-3H,5H-spiro[benzo[e]pyrrolo[1,2-a][1,4]diazepine-2,1′-cyclopropan]-5-one], the values for the IC50 in assay [1], in assay [2] and in assay [3] were 4.35 nM, 1.42 nM and 1.64 nM, respectively.
The corresponding values for `COc1ccc(C2=CN3C(=O)c4cc(OC)c(OCCCCCOc5cc6c(cc5OC5CC5)C(=O)N5CC7(CC7)C[C@H]5C=N6)cc4NC[C@@H]3C2)cc1` [2-16, (S)-7-Cyclopropoxy-8-((5-(((S)-7-methoxy-2-(4-methoxyphenyl)-5-oxo-5,10,11,11a-tetrahydro-1H-benzo[e]pyrrolo[1,2-a][1,4]diazepin-8-yl)oxy)pentyl)oxy)-1,11a-dihydro-3H,5H-spiro[benzo[e]pyrrolo[1,2-a][1,4]diazepine-2,1′-cyclopropan]-5-one] are 0.26 nM, 0.18 nM and 0.36 nM.
